Experimental data published in patent US20080113900A1, “Pharmaceutical compositions and therapeutic applications for the use of a synthetic vitamin B12 derivative, glutathionylcobalamin” (priority 2006, published 2008).
Where “and” joins values, the source holds several entries; their conditions need not be identical. Identical values can stand only once.

What was measured:
U937 (monocytes) = assay: Survival of U937 cells at variable concentration of Hcy; assay type: cell-based; details: NACCbl 30 μM, NAC 75 μM, CNCbl 15 μM, folate 30 μM
Procedure: Additional cell studies were conducted using Jurkat (T-cells) and U937 (monocyte) cell lines. These experiments confirmed that other cell types are killed by homocysteine, although these cell lines are not as sensitive as the SK-HEP-1 cell line discussed in the experiments above and are thus more resistant to homocysteine. Cells were exposed to NACCbl 30 μM, NAC 75 μM, CNCbl 15 μM, and folate 30 μM. […] In these Figures, the monocytes are N=6 and concentrations are as follows: NACCbl 30 μM, NAC 75 μM, CNCbl 15 μM, Folate 30 μM

SK-HEP-1 cells = assay: Protection of endothelial cells from H2O2-induced cell death (MTS assay); assay type: cell-based, human; set-up: key to Cell viability (MTS assay): cell viability as % survival; details: for Cell viability (MTS assay): SK-HEP-1, n = 6 replicates

For `CC(=O)NC(C[S-])C(=O)O.CC1=C2N=C(C=C3N=C(C(C)=C4[N-]C(C(CC(N)=O)C4(C)CCC(=O)NCC(C)OP(=O)([O-])OC4C(CO)OC(n5cnc6cc(C)c(C)cc65)C4O)C4(C)N=C1C(CCC(N)=O)C4(C)CC(N)=O)C(CCC(N)=O)C3(C)C)C(CCC(N)=O)C2(C)CC(N)=O.[Co+3]` [NACCbl, N-acetyl-L-cysteinylcobalamin], the “Protection of U937 cells from death” value (U937 (monocytes)) was “more effective at protecting these cells from death than NAC, CN Cbl or folate”, the Survival (SK-HEP-1 cells; NACCbl 30 μM, above 25 μM H2O2) was “below 60%” and the “Cell viability (MTS assay)” value (SK-HEP-1 cells; compound 30 μM two hours, then H2O2 0 μM) was 102.9844 and 100.8053 and 103.2212 and 107.9583 and 101.8948 and 98.44. The “Cell viability (MTS assay)” value (SK-HEP-1 cells; compound 30 μM two hours, then H2O2 0.781 μM a further two hours) was 93.46 and 102.7949 and 99.24 and 101.3738 and 103.2686 and 95.45, the “Cell viability (MTS assay)” value (SK-HEP-1 cells; compound 30 μM two hours, then H2O2 1.56 μM a further two hours) was 98.53 and 91.38 and 98.72 and 100.1421 and 89.77 and 96.12 and the “Cell viability (MTS assay)” value (SK-HEP-1 cells; compound 30 μM two hours, then H2O2 3.125 μM a further two hours) was 88.2 and 93.18 and 92.89 and 99.76 and 92.42 and 91.8. For the same compound, the “Cell viability (MTS assay)” value (SK-HEP-1 cells; compound 30 μM two hours, then H2O2 6.25 μM a further two hours) was 88.2 and 87.59 and 82.14 and 81.57 and 78.07 and 77.12, the “Cell viability (MTS assay)” value (SK-HEP-1 cells; compound 30 μM two hours, then H2O2 12.5 μM a further two hours) was 77.17 and 76.98 and 76.6 and 67.12 and 77.6883 and 74.14 and the “Cell viability (MTS assay)” value (SK-HEP-1 cells; compound 30 μM two hours, then H2O2 25 μM a further two hours) was 67.12 and 66.75 and 61.87 and 56.18 and 55.3766 and 55.95. For the same compound, the “Cell viability (MTS assay)” value (SK-HEP-1 cells; compound 30 μM two hours, then H2O2 50 μM a further two hours) was 50.21 and 48.27 and 44.955 and 45.71 and 48.18 and 44.58, the “Cell viability (MTS assay)” value (SK-HEP-1 cells; compound 30 μM two hours, then H2O2 100 μM a further two hours) was 29.99 and 23.97 and 19.56 and 18.901 and 17.53 and 20.89 and the “Cell viability (MTS assay)” value (SK-HEP-1 cells; compound concentration 1.562, 2 hours, then 25 μM H2O2 24 hours) was 4.677 and 1.845 and 5.27 and 1.647 and 4.348 and 5.599. For the same compound, the “Cell viability (MTS assay)” value (SK-HEP-1 cells; compound concentration 3.125, 2 hours, then 25 μM H2O2 24 hours) was 26.8116 and 19.5 and 35.84 and 30.5 and 35.24 and 33.
